One data set relates to DU145. Description: Cell viability (CellTiter), concurrent dehydroequol and cisplatin. Type of data set: cell-based. The procedure:
(§1) The effect of a composition comprising the platinum complex cisplatin and the isoflavonoid compound dehydroequol (compound No. 12) on various cancer cell lines was assessed on culture plates. Cell viability was determined using CellTiter©. Apoptosis was evaluated using Hoechst 33342 dye.

In data set [1] the test system is CP70. The data set is described as above. Format: cell-based. On the procedure:
as §1

For a further data set, the system named is PC3. The description is as above. Format: cell-based. On the procedure: as §1
For a further data set, the system named is A2780. The data set is described as above. Format: cell-based. On the procedure:
as §1

For another data set, the system named is HPAC. The description is as above. Type of data set: cell-based. The procedure: as §1
In data set [2] the test system is CP70. Description: In vivo CP70 tumour injected subcutaneously into nude mice. The settings on record: cisplatin 0.5 mg/kg alone. On the procedure:
(§2) The in vitro studies were performed using ovarian cancer cells isolated from ascites using an immunomagnetic assay and established ovarian cancer cell lines CP70 and A2780. Cell viability was determined using CellTiter©. Apoptosis was evaluated using Hoechst 33342 dye. The in vivo effect was tested by injecting CP70 subcutaneously into nude mice. Animals received daily oral administration of dehydroequol, 10 or 20 mg/kg for 8 days alone or in combination with cisplatin 0.5 mg/kg. After 8 days the animals were sacrificed and the tumour volume was measured.

For data set [3], the system named is ovarian cancer cells isolated from ascites and ovarian cancer cell lines CP70 and A2780. The data set can be described thus: Cell viability (CellTiter) of ovarian cancer cells with or without dehydroequol pre-treatment. Format: cell-based. On the procedure:
as §2

In data set [4] the test system is carboplatin and paclitaxel resistant cells. Description: Decrease in cell viability in chemoresistant cells. Type of data set: cell-based. On the procedure: as §2
The subject of a further data set is caspase 3. The data set can be described thus: Western blot analysis of resistant ovarian cancer cells. Format: cell-based. To be noted: chemoresistant cells, only after pre-treatment with dehydroequol (FIG. 5). The text has this:
FIG. 5 represents a Western Blot analysis of carboplatin or paclitaxel treatment resistant ovarian cancer CP70 cells with and without dehydroequol pre-treatment.
Additionally, the active form of caspase 3 in chemoresistant cells was not detected.

Data set [5] has as its system paclitaxel resistant cell line, R182. Description: Cell viability (CellTiter), paclitaxel resistant cell line. Type of data set: cell-based. To be noted: R182, no pre-treatment (FIG. 2). The procedure: as §2

Like-named read-outs stand apart in the source and are kept apart here.

`N.N.[Cl][Pt][Cl]` [Cisplatin, cis-diamminedichloroplatinum (II)]: the IC50 (commonly the concentration at which inhibition is half-maximal) in the data set on DU145 (DU145, co-incubation with 2 uM dehydroequol, read-out: Cisplatin IC50 +2 uM dehydroequol) is 100 nM; in the data set on DU145 (DU145, single agent, read-out: IC50) it was 5000 nM; in the data set with CP70 [1] (CP70, co-incubation with 2 uM dehydroequol, read-out: Cisplatin IC50 +2 uM dehydroequol) it was 100 nM; in the data set on CP70 [1] (CP70, single agent, read-out: IC50), 10400 nM; in the data set on PC3 (PC3, co-incubation with 2 uM dehydroequol, read-out: Cisplatin IC50 +2 uM dehydroequol), less than 1 nM; in the data set with PC3 (PC3, single agent, read-out: IC50), 400 nM. Besides, the IC50 with A2780 (A2780, co-incubation with 2 uM dehydroequol, read-out: Cisplatin IC50 +2 uM dehydroequol) is less than 1 nM; in the data set on A2780 (A2780, single agent, read-out: IC50), 3000 nM; with HPAC (co-incubation with 2 uM dehydroequol, read-out: Cisplatin IC50 +2 uM dehydroequol), 7700 nM; with HPAC (single agent, read-out: IC50) it was 34500 nM. The “effect on tumour size” value with CP70 [2] is recorded as “no effect”.

For `N.N.O=C([O-])C1(C(=O)[O-])CCC1.[Pt+2]` [carboplatin], the “IC50 for carboplatin after dehydroequol pre-treatment” value in [3] (pre-treatment with dehydroequol (10 μg/ml) for two hours, +/−0.5 (FIG. 3)) worked out at 0.5 µg/mL. In addition, in data set [4] (pre-treatment (2 h) with DHE followed by the agent for 48 h), the “decrease in cell viability” value came to 30%.

Regarding `Oc1ccc(C2=Cc3ccc(O)cc3OC2)cc1` [dehydroequol], the IC50 was 5900 nM in the data set on DU145 (Homo sapiens, DU-145); 1500 nM in the data set with CP70 [1]; 9600 nM in the data set on PC3 (Homo sapiens, PC-3); 1700 nM in the data set on A2780 (Homo sapiens, A2780); 50000 nM in the data set with HPAC (Homo sapiens). Moreover, in the data set with caspase 3, the “Caspase 3 activation” value is listed as “Caspase 3 activation was observed”. In addition, the “decrease in cell viability” value in [4] (pre-treatment alone for 2 h) is listed as 20%; in data set [4] (treatment for 48 hours), 60-80%.

For the compound `CC(=O)O[C@H]1C(=O)[C@@]2(C)[C@H]([C@H](OC(=O)c3ccccc3)[C@]3(O)C[C@H](OC(=O)[C@H](O)[C@@H](NC(=O)c4ccccc4)c4ccccc4)C(C)=C1C3(C)C)[C@]1(OC(C)=O)CO[C@@H]1C[C@@H]2O` [paclitaxel], the IC50 in data set [3] (Homo sapiens, A2780, pre-treatment with dehydroequol (10 μg/ml) for two hours (FIG. 4), read-out: IC50 for paclitaxel after dehydroequol pre-treatment) is 50 nM; in data set [5], more than 2000 nM.
